Consider one compound from PMC10938439, “C-3 Steroidal Hemiesters as Inhibitors of 17β-Hydroxysteroid Dehydrogenase Type 10” (ACS Omega, 2024).

The target in test [1] is T1, 17β-HSD10 (Homo sapiens, UniProt Q99714).
T1 construct: inferred from Ni-NTA purification with imidazole elution; made in house; host or cells: E. coli BL21 (DE3)
T1 sequence (Q99714 1-261): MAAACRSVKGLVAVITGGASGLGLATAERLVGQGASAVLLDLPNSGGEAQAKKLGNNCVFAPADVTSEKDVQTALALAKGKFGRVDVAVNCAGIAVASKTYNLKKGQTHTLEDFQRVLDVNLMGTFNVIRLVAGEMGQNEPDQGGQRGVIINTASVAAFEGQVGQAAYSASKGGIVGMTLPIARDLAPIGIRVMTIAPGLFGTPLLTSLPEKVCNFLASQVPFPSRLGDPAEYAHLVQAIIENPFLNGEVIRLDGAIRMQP
Briefly: Inhibition of 17β-estradiol to estrone transformation by purified recombinant 17β-HSD10 (NADH fluorescence). The test is classed as biochemical. As to conditions: purified recombinant 17β-HSD10, 17β-estradiol as substrate; means ± SEM (n = 4). The method, then: As standards, we used the known inhibitor AG18051 as the positive control and the published steroidal compounds,[18] namely, pregnenolone, testosterone, dihydrotestosterone, androsterone, epiandrosterone, and dehydroepiandrosterone.
17β-HSD10 was performed as described previously.[11] Briefly, the autoinduction and overexpression were performed at 25 °C for 18 h in the E. coli BL21 (DE3) strain. The bacterial pellet was resuspended in lysis buffer that consisted of sodium phosphate buffer ([…]), NaCl (150 mM), and imidazole (10 mM, pH 8.0) with 1 mg/mL lysozyme and benzonase (150 U/mL). cOmplete EDTA-free protease inhibitor cocktail was incubated for 20 min on ice and then sonicated (12 × 10 s pulses with 30 s pauses). The supernatant was applied to the Ni-NTA agarose resin after centrifugation (16 000g, 10 min, 4 °C). Then, the solution was incubated on ice for 1 h with gentle stirring.
The standard steroids were screened at 1 and 10 μM concentrations, and the tested compounds and standard AG18051 were screened at 10 μM concentration. For compounds with at least 50% inhibition of 17β-HSD10, the IC50 values were determined.
Steroid stock solutions (5 mM) were further diluted with DMSO to the working concentrations. DMSO was used as a vehicle control, and AG18051 was used as a control inhibitor. The enzyme activity was determined fluorometrically at 37 °C in the activity assay buffer [100 mM potassium phosphate buffer (pH 8.0)]. The general reaction mixture (200 μL per well) consisted of 17β-estradiol (25 μM, DMSO), NAD+ (500 μM, deionized water), recombinant 17β-HSD10 (45 nM), and different concentrations of inhibitor (2.2% (v/v) final concentration of DMSO as solvent). Before the addition of substrate, the reaction mixture of enzyme, cofactor, and inhibitor in the assay buffer was preincubated for 5 min at 37 °C. The increase of fluorescence (Ex/Em = 340/460 nm) due to the formation of NADH was monitored for 20 min (30 s intervals). For IC50 value determination, dose–response inhibition at 11 different concentrations of inhibitor (0.6–33.75 μM) was determined and the data were analyzed by GraphPad Prism 8.4.3 (GraphPad Software Inc.). All measurements were performed in a tetraplicate.

In test [2] the target is T1, 17β-HSD10. Briefly: Inhibition of allopregnanolone to 5α-dihydroprogesterone transformation by recombinant 17β-HSD10. The format is biochemical. Particulars: 20 μM allopregnanolone as substrate; mean ± SEM (n = 4). The method, then:
Compound 23 (5 mM stock solution) was diluted with DMSO to the working concentrations. DMSO was used as vehicle control. The enzyme activity was determined as described in the previous section; the only difference was the replacement of 25 μM 17β-estradiol with 20 μM allopregnanolone as 17β-HSD10 substrate. For IC50 value determination, dose–response inhibition at 10 different concentrations of inhibitor (0.16–33.75 μM) was determined, and the data were analyzed by GraphPad Prism 8.4.3 (GraphPad Software Inc.). All measurements were performed in a tetraplicate.

Usually IC50 stands for the concentration at which inhibition is half-maximal.

SMILES strings stand for the structures. “And” between values parts separate entries of the source, which are not always exact repeats. Equal values may be shown once.

Regarding `C[C@@]12CCC[C@H]1[C@@H]1CC=C3C[C@@H](OC(=O)CCCCC(=O)O)CC[C@]3(C)[C@H]1CC2` [Compound 23, Androst-5-en-3β-yl Hemiadipate], the IC50 on 17β-HSD10 [1] was ~5.59 µM and 5.59 µM; at 17β-HSD10 [2] it was ~15.2 µM and 15.2 µM.
